{
  "source": "paper PMC8952364",
  "about": "“Polyphenols as Inhibitors of Antibiotic Resistant Bacteria—Mechanisms Underlying Rutin Interference with Bacterial Virulence” (Pharmaceuticals, 2022)",
  "key": {"[1]": {"system": "P. aeruginosa IBRS P001 pyocyanin production", "experiment": "Pyocyanin assay", "type": "cell-based, Pseudomonas aeruginosa", "details": "0.25 mg/mL (0.5 MIC), compared to the control", "protocol": "Pyocyanin extraction from the culture supernatant was performed using chloroform in a 1:2 ratio [71]. The second extraction of the chloroform phase was done by 0.2 N HCl (3:1 ratio). The pyocyanin concentration was evaluated by recording the absorbance at 520 nm using a Plate Reader Infinite 200 pro (MTX Lab Systems, Vienna, VA, USA). The pyocyanin concentration was calculated by multiplication of the absorbance (A520) by 17.072. A solvent-treated culture supernatant was used as a positive control."}, "[2]": {"system": "24 h old P. aeruginosa IBRS P001 biofilms", "experiment": "Biofilm eradication, MTT assay (cell viability)", "type": "cell-based, Pseudomonas aeruginosa", "protocol": "The impact of rutin on P. aeruginosa IBRS P001 biofilm formation was determined as previously described by estimating the metabolic activity of microbial cells using an MTT assay. […] The supernatants were then ejected and the biofilms washed with PBS. MTT reagent (200 μL, 0.5 mg/mL) was added and the plate was incubated at 37 °C in the dark for 2 h. The resulting dye was dissolved in DMSO and the absorbance was measured at 570 nm in a microtiter plate reader Multiskan™ FC Microplate Photometer, Thermo Scientific™. The inhibition percentage of biofilm cell viability was calculated:%Inhibition = [(A570control − A570sample)/A570control] × 100\n(§1) The bacterial cells were incubated in TSB enriched with 2% glucose in 96-well plates (Sarstedt, Germany) with adhesive bottom at 37 °C for 24 h. After incubation, wells were washed with PBS, and rutin (MBC–4 MBC) in TSB with 2% glucose was added. Incubation continued at 37 °C for another 24 h. The planktonic cells were removed.\n(§2) The assays continued as described above for the crystal violet antibiofilm assay for the measurement of biofilm mass, biofilm MTT assay for the interference with cell viability, Congo red binding assay for estimation of exopolysaccharide production, and eDNA assay."}, "MRSA IBRS MRSA 011": {"system": "MRSA IBRS MRSA 011", "experiment": "Bacterial adhesion to HaCaT cells", "type": "cell-based, Staphylococcus aureus", "protocol": "HaCaT cells were grown until confluence in 24-well plates with an adhesive bottom. The medium was removed and DMEM without FBS containing the rutin (MIC and 0.5 MIC) was added. The samples were incubated at 37 °C for 15 min, and bacteria (P. aeruginosa IBRS P001 and MRSA IBRS MRSA 011) were added. After incubation at 37 °C for 1 h, the cells were washed three times with DMEM without FBS and lyzed with 1 mL of 1% (v/v) Tween-20 (SigmaAldrich, Germany) at 37 °C for 30 min. Afterwards, dilutions of the bacterial suspension in each well were made and seeded on Plate Count Agar plates. The number of CFU was determined after incubation at 37 °C for 18 h, and the percentage of adhered bacterial cells was calculated following the equation:% (adhesion relative to the control) = 100 × CFU (treated)/CFU (control)\nWith CFU (treated) representing the number of CFUs after the treatment of cells with rutin and CFU (control) representing the number of bacterial CFUs in the untreated sample. The solvent treated sample was used as the control."}, "P. aeruginosa IBRS P001": {"system": "P. aeruginosa IBRS P001", "experiment": "Catheter biofilm inhibition model", "type": "cell-based, Pseudomonas aeruginosa", "details": "MIC and 0.5 MIC of rutin, 24 h", "protocol": "The method was performed as described previously, with some modifications. Sterile silicon 16-mm Romed catheters (Van Oostveen Medical, Wilnis, The Netherlands) were cut into 1 cm lengths and placed in 24-well plates (Sarstedt, Nümbrecht, Germany). P. aeruginosa IBRS P001 and MRSA in TSB with 2% glucose (Torlak, Belgrade, Serbia) and rutin (0.25–1 MIC) were added for the inhibition assay. After incubation (37 °C, 24 h), the catheters were washed with PBS and transferred to 1.5 mL tubes. PBS was added and tubes were vortexed vigorously. The samples were diluted and seeded onto Plate Count Agar (HiMedia Laboratories, Mumbai, India). After being incubated at 37 °C for 24 h, the CFU (colony forming units) count was determined and the inhibition percentage relative to the untreated control was calculated."}, "[3]": {"system": "24 h old P. aeruginosa IBRS P001 biofilms", "experiment": "Biofilm eradication, Congo red binding assay (exopolysaccharide)", "type": "cell-based, Pseudomonas aeruginosa", "protocol": "The estimation of rutin’s impact on biofilm exopolysaccharide production (EPS) was determined by the Congo red binding assay. P. aeruginosa IBRS P001 biofilm EPS production was determined as previously described. […] The planktonic cells were removed, and the adherent cells were washed with PBS. Wells were stained with 1% (w/v) Congo red (SigmaAldrich, Germany) in the dark for 30 min. Wells were aspirated and subsequently the bound dye was solubilized with 200 μL DMSO. Absorbance at 490 nm was measured in a microtiter plate reader Multiskan™ FC microplate photometer (Thermo Scientific™, United States) and the inhibition percentage of EPS production was calculated according to the following equation:%Inhibition = [(A490control − A490sample)/A490control] × 100\nas §1, §2"}, "rhlI": {"system": "rhlI", "experiment": "RT-qPCR analysis of QS genes", "type": "cell-based, Pseudomonas aeruginosa", "details": "0.5 MIC, 0.25 mg/mL, vs untreated control", "protocol": "(§3) Reverse transcription-quantitative PCR (RT-qPCR) was performed to reveal the impact of rutin on the P. aeruginosa IBRS P001 quorum sensing (QS) regulatory genes expression. The total RNA was extracted from the P. aeruginosa IBRS P001 test strain (grown for 10 h, 37 °C, aerobically) cultivated in Mueller-Hinton medium and supplemented with rutin (0.250 mg/mL, final concentration) or without it by an RNeasy Mini Kit (Qiagen, Hilden, Germany). The same volume of the ethanol (solvent) was added in the positive control. The total RNA was then treated with DNase I using an Ambion DNA-freeTM Kit (ThermoFisher, Waltham, MA, USA) and reverse transcribed by a Rever-tAid RT Reverse transcription Kit (ThermoFisher, Waltham, MA, USA) according to the manufacturer’s instructions. […] Obtained data were normalized against the ribosomal gene rpsL as an internal control following the 2^−ΔΔCT method. Experiments were done in triplicate."}, "lasR": {"system": "lasR", "experiment": "RT-qPCR analysis of QS genes", "type": "cell-based, Pseudomonas aeruginosa", "details": "0.5 MIC, 0.25 mg/mL, vs untreated control", "protocol": "as §3"}, "lasI": {"system": "lasI", "experiment": "RT-qPCR analysis of QS genes", "type": "cell-based, Pseudomonas aeruginosa", "details": "0.5 MIC, 0.25 mg/mL, vs untreated control", "protocol": "as §3"}, "pqsA": {"system": "pqsA", "experiment": "RT-qPCR analysis of QS genes", "type": "cell-based, Pseudomonas aeruginosa", "details": "0.5 MIC, 0.25 mg/mL, vs untreated control", "protocol": "as §3"}, "rhlR": {"system": "rhlR", "experiment": "RT-qPCR analysis of QS genes", "type": "cell-based, Pseudomonas aeruginosa", "details": "0.5 MIC, 0.25 mg/mL, vs untreated control", "protocol": "as §3"}, "mvfR": {"system": "mvfR", "experiment": "RT-qPCR analysis of QS genes", "type": "cell-based, Pseudomonas aeruginosa", "details": "0.5 MIC, 0.25 mg/mL, vs untreated control", "protocol": "as §3"}},
  "data": [
    {"smiles": "C[C@@H]1O[C@@H](OC[C@H]2O[C@@H](Oc3c(-c4ccc(O)c(O)c4)oc4cc(O)cc(O)c4c3=O)[C@H](O)[C@@H](O)[C@@H]2O)[C@H](O)[C@H](O)[C@H]1O", "note": "[Rutin, rutin]", "values": [
      {"measurement": "decrease of pyocyanin production", "setting": "[1]", "result": 82.1, "unit": "%"},
      {"measurement": "viability at 1000 µg/mL", "setting": "[2]; Pseudomonas aeruginosa, MBC, 1 mg/mL, read-out: viability of cells within the biofilms", "result": 92, "unit": "%"},
      {"measurement": "viability of cells within the biofilms", "setting": "[2]; maximal concentration examined (4 MBC)", "result": 55, "unit": "%"},
      {"measurement": "inhibition at 250 µg/mL", "setting": "MRSA IBRS MRSA 011; Staphylococcus aureus, MRSA, Keratinocyte, read-out: reduction of CFU adhered to human keratinocytes (inhibition)", "result": 19, "unit": "%"},
      {"measurement": "reduction of CFU adhered to human keratinocytes", "setting": "MRSA IBRS MRSA 011; rutin MIC", "result": 63, "unit": "%"},
      {"measurement": "biofilm inhibition on catheter", "setting": "P. aeruginosa IBRS P001", "result": 100, "unit": "%"},
      {"measurement": "number of colonies attached to the urinary catheters", "setting": "P. aeruginosa IBRS P001", "result": 0},
      {"measurement": "exopolysaccharide production decreased to", "setting": "[3]; 2 MBC", "result": 65, "unit": "%"},
      {"measurement": "exopolysaccharide production decreased to", "setting": "[3]; 4 MBC", "result": 69, "unit": "%"},
      {"measurement": "exopolysaccharide production decreased to", "setting": "[3]; MBC", "result": 89, "unit": "%"},
      {"measurement": "downregulation of relative mRNA level", "setting": "rhlI", "result": 2.6, "unit": "fold"},
      {"measurement": "decrease of relative expression", "setting": "lasR", "result": "about 1.7 times"},
      {"measurement": "decrease of relative expression", "setting": "lasI", "result": 2.4, "unit": "times"},
      {"measurement": "downregulation of relative mRNA level", "setting": "pqsA", "result": 3, "unit": "fold"},
      {"measurement": "decrease of relative expression", "setting": "rhlR", "result": "about 1.7 times"},
      {"measurement": "decrease of relative expression", "setting": "mvfR", "result": 2.2, "unit": "times"}
    ]}
  ]
}
